In US4594425A, “Heterocyclic compounds as antiallergic agents” (American Home Products Corporation, priority 1984, dated 1986):

Legend:
[1] = system: synthesis of 5-HETE by rat glycogen-elicited polymorphonuclear leukocytes (lipoxygenase); assay: inhibition of 5-HETE synthesis by rat glycogen-elicited polymorphonuclear leukocytes; type: cell-based, rat (Wistar); settings: Leukocyte; rat PMN, A23187 10 μM, [14C] arachidonic acid, 37° C.; read-out: 50% Inhibitory Concentration (IC50) 5-HETE
Description: (§1) This is especially true with respect to 5,12-diHETE, which is also denoted as LTB4 [see Ford-Hitchinson, J. Roy. Soc. Med., 74, 831 (1981)]. The assay of this Example measures the ability of the compounds of the invention to inhibit the synthesis of 5-HETE and LTB4 by rat glycogen-elicited polymorphonuclear leukocytes.
(§2) The assay is carried out as follows:
(§3) Peritoneal PMN are obtained from female Wistar rats (150-250 g) that received an i.p. injection of 6% glycogen (10 ml). After 24 hours, rats are killed by CO2 asphyxiation and peritoneal cells are harvested by peritoneal lavage using Ca^++ and Mg^++ free Hanks' balanced salt solution (HBSS). The peritoneal exudate is centrifuged at 400 g for 10 minutes. After centrifugation, the lavaged fluid is removed and the cell pellet is resuspended in HBSS containing Ca^++ and Mg^++ and 10 mM L-cysteine at a concentration of 2×10^7 cells/ml. To 1 ml portions of cell suspension, test drugs or vehicle are added and incubated at 37° C. for 10 minutes. Following this preincubation, the calcium ionophore (10 μM), A23187, is added together with 0.5 μCi [^14 C] arachidonic acid and further incubated for 10 minutes. The reaction is stopped by the addition of ice cold water (3 ml) and acidifying to pH 3.5. Lipoxygenase products are then extracted twice into diethyl ether. The pooled ether extracts are evaporated to dryness under nitrogen and the residue is redissolved in a small volume of methanol and spotted on aluminum backed pre-coated thin layer chromatographic plates. The samples are then co-chromatographed with authentic reference 5-HETE, 12-HETE and 5,12-diHETE in the solvent system-hexane:ether:acetic acid (50:50:3). After chromatography, the areas associated with 5-HETE and 5,12-diHETE standards are identified by autoradiography, cut out and quantitated by liquid scintillation.
(§4) Results are expressed as % inhibition of [^14 C]5-HETE and [^14 C]LTB4 (5,12-HETE) synthesis. [formula]
(§5) Testing compounds of the invention in this assay and using the antioxident 3-amino-1-[m-(trifluoromethyl)phenyl]-2-pyrazoline (BW755C) as a standard, the following results are obtained.

[2] = system: synthesis of LTB4 by rat glycogen-elicited polymorphonuclear leukocytes (lipoxygenase); assay: inhibition of LTB4 (5,12-diHETE) synthesis by rat glycogen-elicited polymorphonuclear leukocytes; type: cell-based, rat (Wistar); settings: Leukocyte; rat PMN, A23187 10 μM, [14C] arachidonic acid, 37° C.; read-out: 50% Inhibitory Concentration (IC50) LTB4
Description: as §1, §2, §3, §4, §5

[3] = system: LTD4 induced bronchoconstriction; assay: in vivo inhibition of bronchospasm induced in guinea pigs by exogenously administered LTD4; design: species or system guinea pig (male Hartley); settings: 50 mg/kg intraduodenal, 10 minutes before LTD4, average of 6 experiments
Description: The assay of this Example measures the in vivo ability of the compounds of the invention to inhibit the bronchospasm induced in guinea pigs by the exogenously administered leukotrienes C4 and/or D4. This assay is essentially a measure of the SRS-A antagonist properties of the compounds tested.
This assay is carried out as follows:
Male Hartley strain guinea pigs (350-600 g) are anesthetized with pentobarbital sodium (50 mg/kg, i.p.). The jugular vein is cannulated for injection of drugs and the carotid artery for monitoring blood prerssure. The trachea is cannulated for artificial ventilation by a miniature Starling pump and for indirect measurement of respiratory volume changes as described infra. Additional pentobarbital sodium (15 mg/kg, i.v.) is administered to arrest spontaneous respiration. Submaximal bronchoconstrictor responses are established in control animals by varying the dose-levels of leukotriene. Intravenous dose-levels of LTC4 range from 1 to 2 μg/kg and for LTD4 the range is from 0.3 to 1 μg/kg. The aerosol bronchoprovocation dose for LTC4 is generated from 1.6 μM solution and for LTD4 from a 2.0 μM solution.
Test drugs are administered either intravenously, by aerosol or orally at 1 or 10 minutes before induction of bronchospasm by administration of either LTC4 or LTD4 at the predetermined dose-levels. Aerosols of soluble drugs or leukotrienes are produced in-line for 10 seconds only by actuation of an ultrasonic nebulizer (Monaghan). Aerosolized drug dosage is expressed in terms of solution concentration and by a fixed aerosol exposure time (approximately 10 seconds). Control animals receive saline in place of drug.
Respiratory volume changes are determined by a calibrated piston whose travel is recorded, via a linear transducer, on a Beckman Dynograph recorder. Maximal bronchoconstrictor volume is determined by clamping off the trachea at the end of the experiment. Overflow volumes at 3 and 5 minutes are obtained from the recorded charts.
The overflow volume at 3 and 5 minutes is expressed as a percentage of maximal bronchoconstriction. Combined group values are used from each of these time intervals to determine the inhibitory effect of drugs. [formula] Students t-test for unpaired data is used to determine statistical significance. Dose response curves are generated and ED50 doses are interpolated from the regression lines.
Results for compounds of the invention in this assay, using LTD4 for induction of bronchospasm, are given below: […]

[4] = system: ovalbumin induced bronchospasm mediated by endogenous products of the lipoxygenase oxidation of arachidonic acid; assay: in vivo inhibition of ovalbumin induced bronchospasm in sensitized guinea pigs (endogenous mediators); design: species or system guinea pig (male Hartley); settings: 50 mg/kg intraduodenal, 10 minutes before ovalbumin challenge, average of 6 experiments

| IC50 [1] | IC50 [2] | SMILES | % Inhibition (Statistical Average), Overflow Volume at 3 min. [3] | % Inhibition (Statistical Average), Overflow Volume at 5 min. [3] | % Inhibition (Statistical Average), Overflow Volume at 3 min. [4] | % Inhibition (Statistical Average), Overflow Volume at 5 min. [4] |
| --- | --- | --- | --- | --- | --- | --- |
| 43 µM | 30 µM | NC1=NN(c2cccc(C(F)(F)F)c2)CC1 [BW755C, 3-amino-1-[m-(trifluoromethyl)phenyl]-2-pyrazoline, reference compound] |  |  |  |  |
| 15.7 µM | 26 µM | COC(=O)CCC(=O)Nc1cccc(OCc2nc3ccccc3s2)c1 [Example 1, 4-[[3-[(2-benzthiazolyl)methoxy]phenyl]amino]-4-oxobutanoic acid, methyl ester] | 33% | 41% | 68% | 49% |
| 69.7 µM | 65.5 µM | COC(=O)CCC(=O)Nc1cccc(OCc2nc3ccccc3o2)c1 [Example 2a, 4-[[3-[(2-benzoxazolyl)methoxy]phenyl]amino]-4-oxobutanoic acid, methyl ester] |  |  |  |  |
|  |  | COC(=O)CCC(=O)Nc1cccc(OCc2nc3ccccc3n2C)c1 [Example 2b, 4-[[3-[(1-methyl-2-benzimidazolyl)methoxy]phenyl]amino]-4-oxobutanoic acid, methyl ester] | 82% | 82% | 54% | 49% |
|  |  | COC(=O)CC(=O)Nc1cccc(OCc2nc3ccccc3s2)c1 [Example 2c, 3-[[3-[(2-benzthiazolyl)methoxy]phenyl]amino]-3-oxopropanoic acid, methyl ester] | 77% | 76% |  |  |
|  |  | COC(=O)CC(=O)Nc1cccc(OCc2nc3ccccc3n2C)c1 [Example 2d, 3-[[3-[(1-methyl-2-benzimidazolyl)methoxy]phenyl]amino]-3-oxopropanoic acid, methyl ester] | 62% | 59% |  |  |
| 17.9 µM | 27.3 µM | COC(=O)CCC(=O)Nc1cccc(OCc2cc3ccccc3o2)c1 [Example 3, 4-[[3-[(2-benzofuranyl)methoxy]phenyl]amino]-4-oxobutanoic acid, methyl ester] |  |  |  |  |
| 0.36 µM | 0.49 µM | COC(=O)CCC(=O)N(O)c1cccc(OCc2nc3ccccc3s2)c1 [Example 6, 4-[[3-[(2-benzthiazolyl)methoxy]phenyl]hydroxylamino]-4-oxobutanoic acid, methyl ester] | 78% | 78% |  |  |
